The record followed here is US20130053395A1, “PYRAZOLOPYRIDINE KINASE INHIBITORS” (VERTEX PHARMACEUTICALS INCORPORATED, priority 2010, published 2013).

In one assay the target is PKC theta kinase (Homo sapiens, UniProt Q04759). Nature of the assay: PKC theta kinase coupled-enzyme (NADH) Ki assay. In kind it is biochemical. Particulars: 18 nM PKC theta, 240 μM ATP, 30° C., initial rate at 340 nM. The procedure: An assay buffer solution was prepared which consisted of 100 mM HEPES (pH 7.5), 10 mM MgCl2, 25 mM NaCl, 0.1 mM EDTA and 0.01% Brij. An enzyme buffer containing reagents to final assay concentrations of 0.00001% Triton X-100, 200 μg/mL Phosphatidylserine, 20 μg/mL Diacylglycerol, 360 μM NADH, 3 mM phosphoenolpyruvate, 70 μg/mL pyruvate kinase, 24 μg/mL lactate dehydrogenase, 2 mM DTT, 100 μM substrate peptide ([…] SEQ ID NO. 1) and 18 nM PKC theta kinase was prepared in assay buffer. To 60 μL of this enzyme buffer, in a 384 well plate, was added 2 μL of VRT stock solution in DMSO. The mixture was allowed to equilibrate for 10 mins at 30° C. The enzyme reaction was initiated by the addition of 5 μL stock ATP solution prepared in assay buffer to a final assay concentration of 240 μM. Initial rate data was determined from the rate of change of absorbance at 340 nm (corresponding to stoichiometric consumption of NADH) using a Molecular Devices Spectramax plate reader (Sunnyvale, Calif.) over 15 mins at 30° C. For each Ki determination 12 data points covering the VRT concentration range of 0-20 μM were obtained in duplicate (DMSO stocks were prepared from an initial 10 mM VRT stock with subsequent 1:2 serial dilutions). Ki values were calculated from initial rate data by non-linear regression using the Prism software package (Prism 4.0a, Graphpad Software, San Diego, Calif.).
Sequence of PKC theta kinase (Q04759 whole entry): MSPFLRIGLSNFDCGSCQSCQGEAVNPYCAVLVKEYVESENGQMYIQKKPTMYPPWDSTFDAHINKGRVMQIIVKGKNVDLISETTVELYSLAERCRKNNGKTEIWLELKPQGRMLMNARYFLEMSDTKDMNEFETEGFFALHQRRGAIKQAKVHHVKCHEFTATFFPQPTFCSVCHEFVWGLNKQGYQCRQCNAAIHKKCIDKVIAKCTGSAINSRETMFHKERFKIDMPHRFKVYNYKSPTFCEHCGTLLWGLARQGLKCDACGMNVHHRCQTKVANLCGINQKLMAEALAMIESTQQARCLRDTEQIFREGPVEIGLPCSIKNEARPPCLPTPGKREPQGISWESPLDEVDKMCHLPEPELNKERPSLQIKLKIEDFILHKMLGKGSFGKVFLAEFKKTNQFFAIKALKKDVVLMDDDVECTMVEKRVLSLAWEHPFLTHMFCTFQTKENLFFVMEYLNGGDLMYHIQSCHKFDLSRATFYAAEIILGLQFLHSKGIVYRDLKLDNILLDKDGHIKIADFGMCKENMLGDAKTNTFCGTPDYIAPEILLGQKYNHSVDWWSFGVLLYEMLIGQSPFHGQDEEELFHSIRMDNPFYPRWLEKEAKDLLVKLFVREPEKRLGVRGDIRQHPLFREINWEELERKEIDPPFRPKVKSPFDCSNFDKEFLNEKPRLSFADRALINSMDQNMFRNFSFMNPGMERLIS

Another assay has as its target PKC delta kinase (Homo sapiens, UniProt Q05655). Nature of the assay: PKC delta kinase coupled-enzyme (NADH) Ki assay. In kind it is biochemical. As to conditions: 46 nM PKC delta, 150 μM ATP, 30° C., initial rate at 340 nM. The procedure:
An assay buffer solution was prepared which consisted of 100 mM HEPES (pH 7.5), 10 mM MgCl2, 25 mM NaCl, 0.1 mM EDTA and 0.01% Brij. An enzyme buffer containing reagents to final assay concentrations of 0.002% Triton X-100, 200 μg/mL Phosphatidylserine, 20 μg/mL Diacylglycerol, 360 μM NADH, 3 mM phosphoenolpyruvate, 70 μg/mL pyruvate kinase, 24 μg/mL lactate dehydrogenase, 2 mM DTT, 150 μM substrate peptide ([…] SEQ ID NO. 2) and 46 nM PKC delta kinase was prepared in assay buffer. To 16 μL of this enzyme buffer, in a 384 well plate, was added 1 μL of VRT stock solution in DMSO. The mixture was allowed to equilibrate for 10 mins at 30° C. The enzyme reaction was initiated by the addition of 16 μL stock ATP solution prepared in assay buffer to a final assay concentration of 150 μM. Initial rate data was determined from the rate of change of absorbance at 340 nm (corresponding to stoichiometric consumption of NADH) using a Molecular Devices Spectramax plate reader (Sunnyvale, Calif.) over 15 mins at 30° C. For each Ki determination 12 data points covering the VRT concentration range of 0-20 μM were obtained in duplicate (DMSO stocks were prepared from an initial 10 mM VRT stock with subsequent 1:2 serial dilutions). Ki values were calculated from initial rate data by non-linear regression using the Prism software package (Prism 4.0a, Graphpad Software, San Diego, Calif.).

Sequence of PKC delta kinase (Q05655 whole entry): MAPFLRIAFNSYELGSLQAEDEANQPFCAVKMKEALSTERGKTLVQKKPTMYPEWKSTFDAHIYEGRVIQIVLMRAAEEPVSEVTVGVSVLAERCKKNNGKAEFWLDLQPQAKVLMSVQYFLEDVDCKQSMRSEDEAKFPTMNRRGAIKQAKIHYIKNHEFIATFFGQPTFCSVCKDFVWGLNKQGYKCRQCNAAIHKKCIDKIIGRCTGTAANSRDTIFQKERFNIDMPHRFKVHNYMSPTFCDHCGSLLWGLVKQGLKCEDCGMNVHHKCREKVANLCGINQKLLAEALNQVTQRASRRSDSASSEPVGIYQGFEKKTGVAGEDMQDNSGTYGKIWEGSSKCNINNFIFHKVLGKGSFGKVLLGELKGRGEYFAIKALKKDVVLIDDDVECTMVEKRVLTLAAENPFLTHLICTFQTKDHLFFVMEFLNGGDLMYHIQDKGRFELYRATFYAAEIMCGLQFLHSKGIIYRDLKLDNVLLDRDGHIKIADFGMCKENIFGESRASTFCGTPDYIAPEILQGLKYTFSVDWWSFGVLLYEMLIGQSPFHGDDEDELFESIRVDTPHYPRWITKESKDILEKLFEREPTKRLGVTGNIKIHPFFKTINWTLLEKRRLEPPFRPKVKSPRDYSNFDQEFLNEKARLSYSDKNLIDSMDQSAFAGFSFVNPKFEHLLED

For `CC(C)C[C@@H]1CN(c2nc(-c3n[nH]c4ncccc34)c(F)cc2Cl)CCN1` [Compound 8], on PKC theta kinase, the Ki (usually a measure of affinity in units of concentration, obtained from inhibition or displacement) was less than 50 nM. `OC1(C2CN(c3nc(-c4n[nH]c5ncccc45)c(F)cc3Cl)CCN2)CCC1` (centres unmarked) [Compound 6]: the Ki at PKC theta kinase was less than 1 nM; at PKC delta kinase, less than 50 nM. `OC[C@@H]1CN(c2nc(-c3n[nH]c4ncccc34)c(F)cc2F)CCN1` [Compound 10]: the inhibition constant Ki at PKC theta kinase was less than 500 nM; at PKC delta kinase, greater than 1250 nM. Regarding `CC(C)C[C@@H]1CN(c2nc(-c3n[nH]c4ncccc34)c(C#N)cc2F)CCN1` [Compound 11, (R)-5-fluoro-6-(3-isobutylpiperazin-1-yl)-2-(1H-pyrazolo[3,4-b]pyridin-3-yl)nicotinonitrile], the Ki was less than 2800 nM on PKC theta kinase and greater than 1250 nM at PKC delta kinase. Regarding `CCC(O)(CC)[C@@H]1CN(c2nc(-c3n[nH]c4ncccc34)c(F)cc2F)CCN1` [Compound 3], the Ki on PKC theta kinase is less than 1 nM; at PKC delta kinase, less than 500 nM.

For `OC1(C2CN(c3nc(-c4n[nH]c5ncccc45)c(F)cc3F)CCN2)CCC1` (centres unmarked) [Compound 2], the values for the Ki on PKC theta kinase and on PKC delta kinase were less than 1 nM and less than 500 nM, respectively. At PKC theta kinase, `CC(C)C[C@@H]1CN(c2nc(-c3n[nH]c4ncccc34)c(F)cc2F)CCN1` [Compound 7] had a Ki of less than 50 nM. Regarding `CC(C)(O)[C@@H]1CN(c2nc(-c3n[nH]c4ncccc34)c(F)cc2Cl)CCN1` [Compound 5], the figures for the Ki at PKC theta kinase and on PKC delta kinase were less than 1 nM and less than 50 nM, respectively.

As for `OC[C@@H]1CN(c2nc(-c3n[nH]c4ncccc34)c(F)cc2Cl)CCN1` [Compound 9], the Ki on PKC theta kinase and on PKC delta kinase was less than 50 nM throughout. With `OC1([C@@H]2CN(c3nc(-c4n[nH]c5ncccc45)c(F)cc3Cl)CCN2)CC1` [Compound 4], the Ki at PKC theta kinase is less than 1 nM; at PKC delta kinase, less than 50 nM. For `CC(C)(O)[C@@H]1CN(c2nc(-c3n[nH]c4ncccc34)c(F)cc2F)CCN1` [Compound 1, (S)-2-(4-(3,5-difluoro-6-(1H-pyrazolo[3,4-b]pyridin-3-yl)pyridin-2-yl)piperazin-2-yl)propan-2-ol] the same measures were less than 50 nM and less than 500 nM.
